Reference: EP0908457B1, “3-(1,2-benzisothiazol- and isoxazol-5-Y1)-2,4(1H,3H)-pyrimidinedione or thione and 3-(1,2-benzisothiazol- and isoxazol-5-y1)-4(3H)-pyrimidinone or thione herbicidal agents” (BASF AKTIENGESELLSCHAFT, priority 1997, dated 1999)

Key:
[1] = test system: Echinochloa oryzoides (Ard.) Fritsch.; test: Preemergence weed control under flooded paddy conditions, ECHORC (Watergrass (Calif.)); format: in vivo; details: flooded paddy; note: meaning of each grade not given here
Cyperus iria = test: Preemergence weed control under flooded paddy conditions, CYPIR (Rice Flatsedge); format: in vivo; details: flooded paddy; note: meaning of each grade not given here
[2] = test system: Cyperus serotinus, Rottb.; test: Preemergence weed control under flooded paddy conditions, CYPSE (Flatsedge); format: in vivo; note: meaning of each grade not given here
[3] = test system: Monochoria vaginalis, Presl.; test: Preemergence weed control under flooded paddy conditions, MOOVA (Monochoria); format: in vivo; details: flooded paddy; note: meaning of each grade not given here
Sagittaria pygmaea, L. = test: Preemergence weed control under flooded paddy conditions, SAGPY (Arrowhead (Pygmaea)); format: in vivo; details: flooded paddy; note: meaning of each grade not given here
[4] = test system: Oryza sativa, (L.) Tebonnet; test: Rice tolerance to post-transplant applications under flooded paddy conditions (Example 187), ORYSAT (Rice, Tebonnet); for herbicidal effect rating ORYSAT: meaning of each grade not given here
[5] = 0.0313 kg/ha, preemergence weeds, rated three to four weeks after treatment
[6] = 0.0625 kg/ha, preemergence weeds, rated three to four weeks after treatment
[7] = 0.1250 kg/ha, preemergence weeds, rated three to four weeks after treatment
[8] = 0.2500 kg/ha, preemergence weeds, rated three to four weeks after treatment
[9] = Rate 0.0320 kg/ha, preemergence, rated 3-4 weeks after treatment
[10] = Rate 0.0620 kg/ha, preemergence, rated 3-4 weeks after treatment
[11] = Rate 0.1250 kg/ha, preemergence, rated 3-4 weeks after treatment
[12] = Rate 0.2500 kg/ha, preemergence, rated 3-4 weeks after treatment
[13] = Rate 0.5000 kg/ha, preemergence, rated 3-4 weeks after treatment
[14] = Rate 0.0320 kg/ha, preemergence, rated three to four weeks after treatment
[15] = Rate 0.0620 kg/ha, preemergence, rated three to four weeks after treatment
[16] = Rate 0.1250 kg/ha, preemergence, rated three to four weeks after treatment
[17] = Rate 0.2500 kg/ha, preemergence, rated three to four weeks after treatment
[18] = Rate 0.0320 kg/ha, rated three to four weeks after treatment
[19] = Rate 0.0620 kg/ha, rated three to four weeks after treatment
[20] = Rate 0.1250 kg/ha, rated three to four weeks after treatment
[21] = Rate 0.2500 kg/ha, rated three to four weeks after treatment
[22] = Rate 0.0320 kg/ha, preemergence weeds, rated three to four weeks after treatment
[23] = Rate 0.0620 kg/ha, preemergence weeds, rated three to four weeks after treatment
[24] = Rate 0.1250 kg/ha, preemergence weeds, rated three to four weeks after treatment
[25] = Rate 0.2500 kg/ha, preemergence weeds, rated three to four weeks after treatment

CCOCCOCc1nsc2ccc(-n3c(=O)cc(C(F)(F)F)n(C)c3=O)cc12 [Example 200, 3-{3-[(2-Ethoxyethoxy)methyl]-1,2-benzisothiazol-5-yl}-1-methyl-6-(trifluoromethyl)-2,4(1H,3H)-pyrimidinedione]
herbicidal effect rating, ECHORC [1, 5]: 0.0
herbicidal effect rating, ECHORC [1, 6]: 2.0
herbicidal effect rating, ECHORC [1, 7]: 6.0
herbicidal effect rating, ECHORC [1, 8]: 9.0
herbicidal effect rating, CYPIR (Cyperus iria; [5]): 4.0
herbicidal effect rating, CYPIR (Cyperus iria; [6]): 6.0
herbicidal effect rating, CYPIR (Cyperus iria; [7]): 7.0
herbicidal effect rating, CYPIR (Cyperus iria; [8]): 8.0
herbicidal effect rating, CYPSE [2, 5]: 0.0
herbicidal effect rating, CYPSE [2, 6]: 0.0
herbicidal effect rating, CYPSE [2, 7]: 2.0
herbicidal effect rating, CYPSE [2, 8]: 7.0
herbicidal effect rating, MOOVA [3, 5]: 9.0
herbicidal effect rating, MOOVA [3, 6]: 9.0
herbicidal effect rating, MOOVA [3, 7]: 9.0
herbicidal effect rating, MOOVA [3, 8]: 9.0
herbicidal effect rating, SAGPY (Sagittaria pygmaea, L.; [5]): 0.0
herbicidal effect rating, SAGPY (Sagittaria pygmaea, L.; [6]): 0.0
herbicidal effect rating, SAGPY (Sagittaria pygmaea, L.; [7]): 0.0
herbicidal effect rating, SAGPY (Sagittaria pygmaea, L.; [8]): 4.0
herbicidal effect rating, ORYSAT (rice tolerance) ([4]; 0.0313 kg/ha, rated three to four weeks after treatment): 7.0
herbicidal effect rating, ORYSAT (rice tolerance) ([4]; 0.0625 kg/ha, rated three to four weeks after treatment): 7.0
herbicidal effect rating, ORYSAT (rice tolerance) ([4]; 0.1250 kg/ha, rated three to four weeks after treatment): 9.0
herbicidal effect rating, ORYSAT (rice tolerance) ([4]; 0.2500 kg/ha, rated three to four weeks after treatment): 9.0

CNC(=O)COc1ccc(C)cc1-c1nsc2ccc(-n3c(=O)cc(C(F)(F)F)n(C)c3=O)cc12 [Example 561, Acetamide, 2-{{2-{5-[3,6-dihydro-3-methyl-2,6-dioxo-4-(trifluoromethyl)-1(2H)-pyrimidinyl]-1,2-benzisothiazol-3-yl}-p-tolyl}oxy}-N-methyl-]
herbicidal effect rating, ECHORC [1, 9]: 3.6
herbicidal effect rating, ECHORC [1, 10]: 4.8
herbicidal effect rating, ECHORC [1, 11]: 6.4
herbicidal effect rating, ECHORC [1, 12]: 9.0
herbicidal effect rating, ECHORC [1, 13]: 9.0
herbicidal effect rating, CYPIR (Cyperus iria; [9]): 3.0
herbicidal effect rating, CYPIR (Cyperus iria; [10]): 6.0
herbicidal effect rating, CYPIR (Cyperus iria; [11]): 8.5
herbicidal effect rating, CYPIR (Cyperus iria; [12]): 9.0
herbicidal effect rating, CYPIR (Cyperus iria; [13]): 6.0
herbicidal effect rating, CYPSE [2, 9]: 0.0
herbicidal effect rating, CYPSE [2, 10]: 0.0
herbicidal effect rating, CYPSE [2, 11]: 0.0
herbicidal effect rating, CYPSE [2, 12]: 0.0
herbicidal effect rating, CYPSE [2, 13]: 9.0
herbicidal effect rating, MOOVA [3, 9]: 9.0
herbicidal effect rating, MOOVA [3, 10]: 9.0
herbicidal effect rating, MOOVA [3, 11]: 9.0
herbicidal effect rating, MOOVA [3, 12]: 9.0
herbicidal effect rating, MOOVA [3, 13]: 9.0
herbicidal effect rating, SAGPY (Sagittaria pygmaea, L.; [9]): 0.0
herbicidal effect rating, SAGPY (Sagittaria pygmaea, L.; [10]): 0.0
herbicidal effect rating, SAGPY (Sagittaria pygmaea, L.; [11]): 1.0
herbicidal effect rating, SAGPY (Sagittaria pygmaea, L.; [12]): 3.0
herbicidal effect rating, SAGPY (Sagittaria pygmaea, L.; [13]): 0.0
herbicidal effect rating ORYSAT ([4]; Rate 0.0320 kg/ha, rated 3-4 weeks after treatment): 2.5
herbicidal effect rating ORYSAT ([4]; Rate 0.0620 kg/ha, rated 3-4 weeks after treatment): 4.0
herbicidal effect rating ORYSAT ([4]; Rate 0.1250 kg/ha, rated 3-4 weeks after treatment): 3.5
herbicidal effect rating ORYSAT ([4]; Rate 0.2500 kg/ha, rated 3-4 weeks after treatment): 4.5
herbicidal effect rating ORYSAT ([4]; Rate 0.5000 kg/ha, rated 3-4 weeks after treatment): 2.0

CC(C)C=C(C#N)c1nsc2ccc(-n3c(=O)cc(C(F)(F)F)n(C)c3=O)cc12 [Example 591, 1,2-Benzisothiazole-3-acetonitrile, 5-[3,6-dihydro-3-methyl-2,6-dioxo-4-(trifluoromethyl)-1(2H)-pyrimidinyl]-alpha-(2-methylpropylidene)-]
herbicidal effect rating, ECHORC [1, 14]: 3.0
herbicidal effect rating, ECHORC [1, 15]: 3.0
herbicidal effect rating, ECHORC [1, 16]: 7.0
herbicidal effect rating, ECHORC [1, 17]: 9.0
herbicidal effect rating, CYPIR (Cyperus iria; [14]): 3.0
herbicidal effect rating, CYPIR (Cyperus iria; [15]): 4.0
herbicidal effect rating, CYPIR (Cyperus iria; [16]): 7.0
herbicidal effect rating, CYPIR (Cyperus iria; [17]): 7.0
herbicidal effect rating, CYPSE [2, 14]: 0.0
herbicidal effect rating, CYPSE [2, 16]: 0.0
herbicidal effect rating, MOOVA [3, 14]: 7.0
herbicidal effect rating, MOOVA [3, 15]: 9.0
herbicidal effect rating, MOOVA [3, 16]: 9.0
herbicidal effect rating, MOOVA [3, 17]: 9.0
herbicidal effect rating, SAGPY (Sagittaria pygmaea, L.; [14]): 0.0
herbicidal effect rating, SAGPY (Sagittaria pygmaea, L.; [15]): 3.0
herbicidal effect rating, SAGPY (Sagittaria pygmaea, L.; [16]): 7.0
herbicidal effect rating, SAGPY (Sagittaria pygmaea, L.; [17]): 7.0
herbicidal effect rating ORYSAT [4, 18]: 2.0
herbicidal effect rating ORYSAT [4, 19]: 4.0
herbicidal effect rating ORYSAT [4, 20]: 4.0
herbicidal effect rating ORYSAT [4, 21]: 5.0

C[C@@H](Br)[C@H](Br)c1nsc2ccc(-n3c(=O)cc(C(F)(F)F)n(C)c3=O)cc12 [Example 303, 2,4(1H,3H)-Pyrimidinedione, 3-[3-(1,2-dibromopropyl)-1,2-benzisothiazol-5-yl]-1-methyl-6-(trifluoromethyl)-, (1R,2R)-]
herbicidal effect rating, ECHORC [1, 22]: 2.5
herbicidal effect rating, ECHORC [1, 23]: 7.5
herbicidal effect rating, ECHORC [1, 24]: 9.0
herbicidal effect rating, ECHORC [1, 25]: 9.0
herbicidal effect rating, CYPIR (Cyperus iria; [22]): 8.0
herbicidal effect rating, CYPIR (Cyperus iria; [23]): 8.0
herbicidal effect rating, CYPIR (Cyperus iria; [24]): 8.5
herbicidal effect rating, CYPIR (Cyperus iria; [25]): 8.5
herbicidal effect rating, CYPSE [2, 22]: 0.0
herbicidal effect rating, CYPSE [2, 23]: 4.0
herbicidal effect rating, CYPSE [2, 24]: 5.0
herbicidal effect rating, CYPSE [2, 25]: 6.0
herbicidal effect rating, MOOVA [3, 22]: 7.0
herbicidal effect rating, MOOVA [3, 23]: 9.0
herbicidal effect rating, MOOVA [3, 24]: 9.0
herbicidal effect rating, MOOVA [3, 25]: 9.0
herbicidal effect rating, SAGPY (Sagittaria pygmaea, L.; [22]): 2.0
herbicidal effect rating, SAGPY (Sagittaria pygmaea, L.; [23]): 2.0
herbicidal effect rating, SAGPY (Sagittaria pygmaea, L.; [24]): 8.5
herbicidal effect rating, SAGPY (Sagittaria pygmaea, L.; [25]): 9.0
herbicidal effect rating ORYSAT [4, 18]: 2.0
herbicidal effect rating ORYSAT [4, 19]: 4.5
herbicidal effect rating ORYSAT [4, 20]: 5.0
herbicidal effect rating ORYSAT [4, 21]: 7.5
